{"source": "patent US4791215A", "about": "“Derivatives of glutamic acid and aspartic acid” (priority 1984, dated 1988)", "key": {"[1]": {"system": "tolerance induced by morphine", "assay": "Antagonism to development of tolerance to repeated morphine HCl, Tail Flick Test (Experiment 5)", "conditions": "compound 10 mg/kg + morphine 5 mg/kg i.p.", "procedure": "Experiment No. 5: Antagonism of several products of the invention to the development of tolerance induced in rats by the repeated administration of morphine HCl.\nSeveral of the compounds of the invention were examined to determine their possible capacity to antagonise the development of tolerance induced by morphine. Groups of 6 male rats having a weight of about 200-250 grams were used.\nAt intervals of 24 hours from the first treatment (time 0) each animal (except the control group treated physiologically) received 5 mg/kg of morphine hydrochloride i.p. together with 10 mg/kg i.p. of the compounds indicated (with the exception of the group treated solely with morphine).\nThe determination of the pain threshold was effected 15', 30', 45' and 60' from the treatment by the Tail Flick Test."}, "[2]": {"system": "activity of analgesic drugs", "assay": "Hot-plate test, potentiation of analgesic drugs (Experiment 2)", "assay_type": "in vivo, rats", "experimental": "Experiment No. 2: Hot-plate test\nThe method is that described by Eddy et al. (J. Pharmac. Exp. Ther. 107, 385 (1953)).\nGroups of five male rats having a weight of about 150 g, and which have not fasted, are used.\nThe animals are placed on a metal plate on the bottom of a transparent cylinder, which is heated to 55°±1° C. by an azeotropic boiling mixture (acetone-ethyl formate 1:1).\nThe reaction time is defined as the interval which passes between the moment at which the animal is placed on the hot-plate and the moment at which it either licks its feet or tries to jump out of the cylinder. The control reaction time is measured 10 and 5 minutes before administration of the drugs and 10, 20, 30, 45, 60 and 90 minutes afterwards. The animals are left on the plate for a maximum period of 30 seconds.\nThe response to the administration of the product is considered positive if at least a doubling of the normal reaction time is seen. The results obtained are given in Tables 2a and 2b which record the groups treated, the doses administered and the stay times on the plate expressed as the number of positive responses over the number treated."}, "[3]": {"system": "enkephalinamide (DALA) analgesia", "assay": "Potentiation of DALA (enkephalinamide) analgesia, i.c.v., Tail Flick Test (Experiment 4)", "assay_type": "in vivo, rats", "design": "scale not given here", "description": "Experiment No. 4: Potentiation of the analgesic activities of enkephalins induced by some of the compounds of the invention. […]"}, "[4]": {"system": "intestinal transit of carbon", "assay": "Anti-spastic activity, vegetable carbon intestinal transit test", "assay_type": "in vivo, mice", "conditions": "Mus musculus, ip; read-out: antispastic activity ED50 (dose reducing intestinal transit of carbon by 50%)", "description": "The anti-spastic activity which the present compounds exert on the entire digestive system is also notable. Measured in mice with the vegetable carbon test (rate of transit through the stomach and the intestine), this activity is illustrated in the following table.\nclaimed administered intraperitoneally in mice. Values\nexpressed as the ED 50 in mg/kg, that is the dose which\nreduces the intestinal transit of carbon by 50%"}}}
{"compound": "CCCCN(CCCC)C(=O)CCC(NC(=O)c1ccc(Cl)c(Cl)c1)C(=O)O", "note": "[Compound D-2]", "values": [{"measurement": "percentage variation in latency time (Effect %)", "setting": "[1]; 24 h", "result": 45.73, "unit": "%"}, {"measurement": "percentage variation in latency time (Effect %)", "setting": "[1]; 48 h", "result": 59.50, "unit": "%"}, {"measurement": "percentage variation in latency time (Effect %)", "setting": "[1]; 72 h", "result": 51.52, "unit": "%"}, {"measurement": "percentage variation in latency time (Effect %)", "setting": "[1]; 96 h", "result": 43.40, "unit": "%"}, {"measurement": "percentage variation in latency time (Effect %)", "setting": "[1]; 120 h", "result": 37.60, "unit": "%"}, {"measurement": "percentage variation in latency time (Effect %)", "setting": "[1]; 144 h", "result": 21.43, "unit": "%"}, {"measurement": "percentage variation in latency time (Effect %)", "setting": "[1]; 168 h", "result": 29.75, "unit": "%"}, {"measurement": "percentage variation in latency time (Effect %)", "setting": "[1]; time 0", "result": 74.14, "unit": "%"}, {"measurement": "TOTAL positives", "setting": "[2]; oxyphenylbutazone 50 + compound 3 mg/kg i.p.", "result": 12, "unit": "x/30"}, {"measurement": "positive responses over number treated", "setting": "[2]; oxyphenylbutazone 50 + compound 3 mg/kg i.p., 10'", "result": "2/5"}, {"measurement": "positive responses over number treated", "setting": "[2]; oxyphenylbutazone 50 + compound 3 mg/kg i.p., 20'", "result": "1/5"}, {"measurement": "positive responses over number treated", "setting": "[2]; oxyphenylbutazone 50 + compound 3 mg/kg i.p., 30'", "result": "2/5"}, {"measurement": "positive responses over number treated", "setting": "[2]; oxyphenylbutazone 50 + compound 3 mg/kg i.p., 45'", "result": "3/5"}, {"measurement": "positive responses over number treated", "setting": "[2]; oxyphenylbutazone 50 + compound 3 mg/kg i.p., 60'", "result": "3/5"}, {"measurement": "positive responses over number treated", "setting": "[2]; oxyphenylbutazone 50 + compound 3 mg/kg i.p., 90'", "result": "1/5"}, {"measurement": "TOTAL positives", "setting": "[2]; oxyphenylbutazone 50 + compound 10 mg/kg i.p.", "result": 12, "unit": "x/30"}, {"measurement": "positive responses over number treated", "setting": "[2]; oxyphenylbutazone 50 + compound 10 mg/kg i.p., 10'", "result": "1/5"}, {"measurement": "positive responses over number treated", "setting": "[2]; oxyphenylbutazone 50 + compound 10 mg/kg i.p., 20'", "result": "1/5"}, {"measurement": "positive responses over number treated", "setting": "[2]; oxyphenylbutazone 50 + compound 10 mg/kg i.p., 30'", "result": "3/5"}, {"measurement": "positive responses over number treated", "setting": "[2]; oxyphenylbutazone 50 + compound 10 mg/kg i.p., 45'", "result": "3/5"}, {"measurement": "positive responses over number treated", "setting": "[2]; oxyphenylbutazone 50 + compound 10 mg/kg i.p., 60'", "result": "2/5"}, {"measurement": "positive responses over number treated", "setting": "[2]; oxyphenylbutazone 50 + compound 10 mg/kg i.p., 90'", "result": "2/5"}, {"measurement": "TOTAL positives", "setting": "[2]; oxyphenylbutazone 50 + compound 30 mg/kg i.p.", "result": 23, "unit": "x/30"}, {"measurement": "positive responses over number treated", "setting": "[2]; oxyphenylbutazone 50 + compound 30 mg/kg i.p., 10'", "result": "3/5"}, {"measurement": "positive responses over number treated", "setting": "[2]; oxyphenylbutazone 50 + compound 30 mg/kg i.p., 20'", "result": "4/5"}, {"measurement": "positive responses over number treated", "setting": "[2]; oxyphenylbutazone 50 + compound 30 mg/kg i.p., 30'", "result": "4/5"}, {"measurement": "positive responses over number treated", "setting": "[2]; oxyphenylbutazone 50 + compound 30 mg/kg i.p., 45'", "result": "4/5"}, {"measurement": "positive responses over number treated", "setting": "[2]; oxyphenylbutazone 50 + compound 30 mg/kg i.p., 60'", "result": "4/5"}, {"measurement": "positive responses over number treated", "setting": "[2]; oxyphenylbutazone 50 + compound 30 mg/kg i.p., 90'", "result": "4/5"}, {"measurement": "analgesic activity, Tail Flick", "setting": "[3]; DALA 10 + compound 0.003 μg/kg ICV, 10'", "result": 34.9}, {"measurement": "analgesic activity, Tail Flick", "setting": "[3]; DALA 10 + compound 0.003 μg/kg ICV, 20'", "result": 54.0}, {"measurement": "analgesic activity, Tail Flick", "setting": "[3]; DALA 10 + compound 0.003 μg/kg ICV, 30'", "result": 45.5}, {"measurement": "analgesic activity, Tail Flick", "setting": "[3]; DALA 10 + compound 0.003 μg/kg ICV, 45'", "result": 27.5}, {"measurement": "analgesic activity, Tail Flick", "setting": "[3]; DALA 10 + compound 0.003 μg/kg ICV, 60'", "result": 23.5}, {"measurement": "analgesic activity, Tail Flick", "setting": "[3]; DALA 10 + compound 0.003 μg/kg ICV, 90'", "result": 14.9}, {"measurement": "MEAN analgesic activity, Tail Flick", "setting": "[3]; DALA 10 + compound 0.003 μg/kg ICV", "result": 33.4}, {"measurement": "analgesic activity, Tail Flick", "setting": "[3]; DALA 10 + compound 0.01 μg/kg ICV, 10'", "result": 38.2}, {"measurement": "analgesic activity, Tail Flick", "setting": "[3]; DALA 10 + compound 0.01 μg/kg ICV, 20'", "result": 53.7}, {"measurement": "analgesic activity, Tail Flick", "setting": "[3]; DALA 10 + compound 0.01 μg/kg ICV, 30'", "result": 52.6}, {"measurement": "analgesic activity, Tail Flick", "setting": "[3]; DALA 10 + compound 0.01 μg/kg ICV, 45'", "result": 38.5}, {"measurement": "analgesic activity, Tail Flick", "setting": "[3]; DALA 10 + compound 0.01 μg/kg ICV, 60'", "result": 33.7}, {"measurement": "analgesic activity, Tail Flick", "setting": "[3]; DALA 10 + compound 0.01 μg/kg ICV, 90'", "result": 26.3}, {"measurement": "MEAN analgesic activity, Tail Flick", "setting": "[3]; DALA 10 + compound 0.01 μg/kg ICV", "result": 40.5}, {"measurement": "ED50", "setting": "[4]", "result": 50.7, "unit": "mg/kg"}]}
